# Results: publication PMC8434401, “Trifluoromethylated Flavonoid-Based Isoxazoles as Antidiabetic and Anti-Obesity Agents: Synthesis, In Vitro α-Amylase Inhibitory Activity, Molecular Docking and Structure–Activity Relationship Analysis” (Molecules, 2021)
# Where two headings read alike, the source gives them in different places.
# What was measured:
# [1] = target: Aspergillus oryzae α-amylase (Aspergillus oryzae, UniProt P0C1B3); experiment: biochemical; conditions: for inhibition at 50 µM: read-out: α-Amylase Inhibition PI ± SEM% (percentage inhibition)
# Protocol: The α-amylase inhibition assays were carried out according to the protocol described by Chortani et al. (2021), with some modifications. In short, all of the compounds were dissolved in DMSO and then diluted in sodium phosphate buffer (0.02 M, pH 6.9 with 0.006 M NaCl). […] The samples were tested at different concentrations of 50, 25, 12.5, and 6.25 μM. After that, 50 μL of the sample solution was added to 50 μL of Aspergillus oryzae α-amylase solution (0.5 mg/mL) dissolved in the same buffer medium. After pre-incubation for 10 min at 25 °C, 50 μL of starch solution (1% in buffer solution) was added to the mixture. After 10 min of incubation at 25 °C, the product of the reaction was mixed with 100 μL of 3,5-dinitrosalicylic acid solution. At this point, the test tubes were placed for 5 min in a boiling water bath (100 °C), followed by cooling to room temperature. Next, each solution was diluted with 1 mL of distilled water. Over time, the absorbance was measured at 540 nm using a Thermo Scientific™ Multiskan™ GO Microplate Spectrophotometer using a 96-well microplate.
# The α-amylase inhibitory activity was determined as follows:PI (%) = 100[(AbsControl−AbsSample)/(AbsControl)] where AbsControl is the absorbance of the solution without sample (buffer instead of the sample solution) and AbsSample is the absorbance of the mixture with the solution of the sample to be tested. […] Each assay was conducted in triplicate.
# [2] = Table S1, from the concentration-response curves used to calculate the IC50 values (concentrations in μM), read-out: log(IC50) (converted)
# [3] = potency, concentration providing 50% inhibition, mean ± SEM, triplicate, read-out: α-Amylase Inhibition IC50 ± SEM
Compound,"IC50 [1, 2]","IC50 [1, 3]",inhibition at 50 µM [1],melting point
"O=c1c(O)c(-c2ccc(C(F)(F)F)cc2)oc2ccc(Cl)cc12 [Compound 1, 6-Chloro-3-hydroxy-2-(4-(trifluoromethyl)phenyl)-4H-chromen-4-one]",15.3 µM,15.3 ± 0.4 µM,75.2 ± 1.4%,275 °C
"COc1ccc(-c2cc(COc3c(-c4ccc(C(F)(F)F)cc4)oc4ccc(Cl)cc4c3=O)on2)cc1OC [Compound 3m, 6-Chloro-3-((3-(3,4-dimethoxyphenyl)isoxazol-5-yl)methoxy)-2-(4-(trifluoromethyl)phenyl)-4H-chromen-4-one]",13.8 µM,13.8 ± 0.1 µM,93.3 ± 2%,152 °C
"C#CCOc1c(-c2ccc(C(F)(F)F)cc2)oc2ccc(Cl)cc2c1=O [Compound 2, 6-Chloro-3-(prop-2-yn-1-yloxy)-2-(4-(trifluoromethyl)phenyl)-4H-chromen-4-one]",17.7 µM,17.7 ± 0.2 µM,75.2 ± 0.3%,122 °C
"CCCCOc1ccc(-c2cc(COc3c(-c4ccc(C(F)(F)F)cc4)oc4ccc(Cl)cc4c3=O)on2)cc1 [Compound 3i, 3-((3-(4-Butoxyphenyl)isoxazol-5-yl)methoxy)-6-chloro-2-(4-(trifluoromethyl)phenyl)-4H-chromen-4-one]",15.6 µM,15.6 ± 0.2 µM,79.4 ± 1%,130 °C
"CCCCOc1ccc(-c2cc(COc3c(-c4ccc(C(F)(F)F)cc4)oc4ccc(Cl)cc4c3=O)on2)cc1Cl [Compound 3j, 3-((3-(4-Butoxy-3-chlorophenyl)isoxazol-5-yl)methoxy)-6-chloro-2-(4-(trifluoromethyl)phenyl)-4H-chromen-4-one]",13.7 µM,13.7 ± 0.2 µM,93.1 ± 0.9%,134 °C
"O=c1c(OCc2cc(-c3ccc(Cl)cc3)no2)c(-c2ccc(C(F)(F)F)cc2)oc2ccc(Cl)cc12 [Compound 3c, 6-Chloro-3-((3-(4-chlorophenyl)isoxazol-5-yl)methoxy)-2-(4-(trifluoromethyl)phenyl)-4H-chromen-4-one]",14.4 µM,14.4 ± 0.2 µM,87.1 ± 0.7%,177 °C
"COc1ccc(-c2cc(COc3c(-c4ccc(C(F)(F)F)cc4)oc4ccc(Cl)cc4c3=O)on2)cc1Br [Compound 3l, 3-((3-(3-Bromo-4-methoxyphenyl)isoxazol-5-yl)methoxy)-6-chloro-2-(4-(trifluoromethyl)phenyl)-4H-chromen-4-one]",23 µM,23 ± 0.2 µM,70.4 ± 0.4%,144 °C
"Cc1ccc(-c2cc(COc3c(-c4ccc(C(F)(F)F)cc4)oc4ccc(Cl)cc4c3=O)on2)cc1 [Compound 3e, 6-Chloro-3-((3-(p-tolyl)isoxazol-5-yl)methoxy)-2-(4-(trifluoromethyl)phenyl)-4H-chromen-4-one]",26 µM,26 ± 0.7 µM,65.4 ± 0.4%,171 °C
"O=c1c(OCc2cc(-c3ccc([N+](=O)[O-])cc3)no2)c(-c2ccc(C(F)(F)F)cc2)oc2ccc(Cl)cc12 [Compound 3g, 6-Chloro-3-((3-(4-nitrophenyl)isoxazol-5-yl)methoxy)-2-(4-(trifluoromethyl)phenyl)-4H-chromen-4-one]",18.1 µM,18.1 ± 0.3 µM,74.7 ± 0.3%,175 °C
"O=c1c(OCc2cc(-c3ccc(Br)cc3)no2)c(-c2ccc(C(F)(F)F)cc2)oc2ccc(Cl)cc12 [Compound 3d, 3-((3-(4-Bromophenyl)isoxazol-5-yl)methoxy)-6-chloro-2-(4-(trifluoromethyl)phenyl)-4H-chromen-4-one]",14.6 µM,14.6 ± 0.3 µM,85.4 ± 0.9%,179 °C
"O=c1c(OCc2cc(-c3ccccc3)no2)c(-c2ccc(C(F)(F)F)cc2)oc2ccc(Cl)cc12 [Compound 3a, 6-Chloro-3-((3-phenylisoxazol-5-yl)methoxy)-2-(4-(trifluoromethyl)phenyl)-4H-chromen-4-one]",27.2 µM,27.2 ± 0.7 µM,65.6 ± 0.2%,134 °C
"COc1ccc(-c2cc(COc3c(-c4ccc(C(F)(F)F)cc4)oc4ccc(Cl)cc4c3=O)on2)cc1 [Compound 3h, 6-Chloro-3-((3-(4-methoxyphenyl)isoxazol-5-yl)methoxy)-2-(4-(trifluoromethyl)phenyl)-4H-chromen-4-one]",13.3 µM,13.3 ± 0.2 µM,93.5 ± 1.1%,152 °C
"CC(C)(C)c1ccc(-c2cc(COc3c(-c4ccc(C(F)(F)F)cc4)oc4ccc(Cl)cc4c3=O)on2)cc1 [Compound 3f, 3-((3-(4-(Tert-butyl)phenyl)isoxazol-5-yl)methoxy)-6-chloro-2-(4-(trifluoromethyl)phenyl)-4H-chromen-4-one]",27.6 µM,27.6 ± 1.1 µM,64.5 ± 0.7%,112 °C
"O=c1c(OCc2cc(-c3ccc(F)cc3)no2)c(-c2ccc(C(F)(F)F)cc2)oc2ccc(Cl)cc12 [Compound 3b, 6-Chloro-3-((3-(4-fluorophenyl)isoxazol-5-yl)methoxy)-2-(4-(trifluoromethyl)phenyl)-4H-chromen-4-one]",12.6 µM,12.6 ± 0.2 µM,94.7 ± 1.2%,147 °C
"COc1ccc(-c2cc(COc3c(-c4ccc(C(F)(F)F)cc4)oc4ccc(Cl)cc4c3=O)on2)cc1Cl [Compound 3k, 6-Chloro-3-((3-(3-chloro-4-methoxyphenyl)isoxazol-5-yl)methoxy)-2-(4-(trifluoromethyl)phenyl)-4H-chromen-4-one]",21 µM,21 ± 0.6 µM,72.5 ± 1.1%,141 °C
"C[C@H]1O[C@H](O[C@H]2[C@H](O)[C@@H](O)[C@@H](O[C@H]3[C@H](O)[C@@H](O)C(O)O[C@@H]3CO)O[C@@H]2CO)[C@H](O)[C@@H](O)[C@@H]1N[C@H]1C=C(CO)[C@@H](O)[C@H](O)[C@H]1O (stereo partly shown) [Acarbose, reference compound]",,,97.8 ± 0.5%,
